Results on 40 compounds are retold here after patent US4983633A, “Amide compounds, process for preparing the same, and composition for activating gastric motor function containing the same” (Hokuriku Pharmaceutical Co., Ltd., priority 1987, dated 1991).

Data set [1] has as its system isolated guinea pig ileum. In words: Contractile effects of the test compounds in isolated guinea pig ileum. The arrangement: species or system guinea pig (male Hartley). The following applies: for EC50: Cavia porcellus, isolated ileum strips, 37° C, relative to 10^-6 M acetylcholine-induced contraction, read-out: ED50 (dose which evoked 50% of the acetylcholine-induced contraction). The protocol: Contractile effects of the test compounds in isolated guinea pig ileum
Male Hartley guinea-pigs weighing about 450 g were sacrificed and the ileum was excised. Then intact strips 1.5-2.0 cm long were prepared. These preparations were suspended vertically in an organ bath filled with Krebs-Henseleit's solution at 37° C. which was gassed with 95% O2 and 5% CO2. Rhythmic contractions of the preparations were isotonically measured. Effects of the test compounds were assessed as the relative percentage of a test compound against 10^-6 M acetylcholine-induced contractions. Results were as follows (Table 1).
*The dose which evoked 50% of the acetylcholineinduced contraction.

Data set [2] is described as follows: Acute toxicological study in mice (up and down method). The settings on record: mouse, in vivo; intravenous, male ICR mice aged 5 weeks. The protocol:
Acute toxicological study in mice
Male ICR mice aged 5 weeks were used for each determination. The test compounds (2-4 different doses) were intravenously administered and LD50 values were calculated using the up and down method. Results were as follows (Table 3).

Data set [3] deals with dopamine-induced suppression of gastrointestinal transit. Kind of data set: Improving effects on dopamine-induced suppression of gastrointestinal transit in mice (charcoal meal). The format is in vivo, mice (male ddY). The settings on record: for Improvement (%) / Gastrointestinal transit (% ± S.E.): test compound 30 mg/kg p.o. + dopamine 2 mg/kg i.p.; for Gastrointestinal transit (% ± S.E.): 20 min after charcoal meal; for improvement of gastrointestinal transit inhibited by dopamine (in words): 30 mg/kg p.o. The protocol: Improving effects of the test compound on dopamine-induced suppression of gastrointestinal transit in mice
Male mice of the ddY strain weighing about 22 g were fasted overnight and the test compounds (suspended in 0.5% carboxymethylcellulose) were administered orally. Thirty minutes later dopamine (2 mg/kg dissolved in saline) or saline only was administered intraperitoneally followed immediately by the oral administration of charcoal meal (5% charcoal powder suspended in 10% gum arabic). Twenty minutes later the animals were sacrificed and the digestive tracts were isolated from the stomach to the cecum. The gastrointestinal transit was determined by calculating the total intestinal length between the pylorus and the cecum and the length over which charcoal meal was carried from the pylorus. Statistical analysis was carried out by Student's t-test for unpaired observations.

For data set [4], the system named is apomorphine-induced emesis. Kind of data set: Suppressing effects on apomorphine-induced emesis in beagle dogs. The following applies: apomorphine s.c., observed for sixty minutes. The data set is classed as in vivo, beagle dogs (male). The protocol:
Suppressing effects of the test compounds on apomorphine-induced emesis in beagle dogs
Male beagle dogs weighing about 8 kg were fasted overnight. The test compounds (suspended or dissolved in 0.5% CMC) were administered orally and the dogs fed fortyfive minutes later.

Molecules are shown by their SMILES. “And” between values parts separate entries of the source, which are not always exact repeats. Equal entries are not always repeated. Structures can show the parent of a compound that is named as a salt.

For `Cc1cc(C(=O)NCc2ccc(OCCN3CCCC3)cc2)ccc1[N+](=O)[O-]` [Compound 63], the EC50 in data set [1] is 500 nM. Still for that read-out and setting: under `CN(C)CCOc1ccc(CNC(=O)c2cccc(Cl)c2)cc1` [Compound 45] stands 4600 nM; under `CN(C)CCOc1ccc(CNC(=O)c2ccc([N+](=O)[O-])cc2)cc1` [Compound 52], 450 nM; under `COc1cc(N)c(S(N)(=O)=O)cc1C(=O)NCc1ccc(OCCN(C)C)cc1` [Compound 41], 130 nM. Same read-out and setting: under `CN(C)CCOc1ccc(CNC(=O)c2ccc(Cl)c(S(=O)(=O)N(C)C)c2)cc1` [Compound 39] stands 390 nM. Take `N#Cc1ccc(C(=O)NCc2ccc(OCCN3CCCC3)cc2)cc1` [Compound 57]: the EC50 in data set [1] was determined as 930 nM. The same measure, in the same setting: under `O=C(NCc1ccc(OCCN2CCCC2)cc1)c1cccc([N+](=O)[O-])c1` [Compound 58] stands 420 nM. The LD50 is the dose at which mortality reaches 50%. A low value points to a more toxic substance. Turning to `CN(C)CCOc1ccc(CNC(=O)c2cccc([N+](=O)[O-])c2)cc1` [Compound 51], in data set [1], the EC50 was found to be 610 nM. The compound further showed an LD50 in data set [2] of 85.9 mg/kg. For `CN(C)CCOc1ccc(CNC(=O)c2ccc(Cl)cc2Cl)cc1` [Compound 59], the EC50 in data set [1] is 620 nM.

Regarding `COc1ccc(C(=O)NCc2ccc(OCCN3CCCC3)cc2)cc1OC` [Compound 18, 3,4-Dimethoxy-N-[4-[2-(1-pyrrolidinyl)ethoxy]benzyl]benzamide], in data set [3], the “Improvement (%)” value worked out at 71.7% and the “Gastrointestinal transit (% ± S.E.)” value turned out to be 43.0 ± 6.5%. `CN(C)CCOc1ccc(CNC(=O)c2ccc(S(N)(=O)=O)cc2)cc1` [Compound 8, N-[4-[2-(Dimethylamino)ethoxy]benzyl]-4-sulfamoylbenzamide]: in data set [1], the EC50 turned out to be 1600 nM. The compound also came in with an LD50 in data set [2] of 85.1 mg/kg. In the same order, the values of `CN(C)CCOc1ccc(CNC(=O)c2ccc(C#N)cc2)cc1` [Compound 53] are 460 nM and 77.6 mg/kg.

On to `COc1ccc(S(=O)(=O)N(C)C)cc1C(=O)NCc1ccc(OCCN(C)C)cc1` [Compound 7, N-[4-[2-(Dimethylamino)ethoxy]benzyl]-5-dimethylaminosulfonyl 2-methoxybenzamide], for which, in data set [1], the EC50 came to 300 nM. Still for that read-out and setting: next, `CN(C)CCOc1ccc(CNC(=O)c2ccccc2)cc1` [Compound 20]: 500 nM. Consider `CCOc1ccc(C(=O)NCc2ccc(OCCN(C)C)cc2)cc1` [Compound 25], for which the EC50 in data set [1] was found to be 680 nM. Further, the LD50 in data set [2] turned out to be 87.1 mg/kg. In the same order, the values of `CCOc1ccc(C(=O)NCc2ccc(OCCN(C)C)cc2)cc1OCC` [Compound 32] are 140 nM and 112 mg/kg. With `CNS(=O)(=O)c1ccc(OC)c(C(=O)NCc2ccc(OCCN(C)C)cc2)c1` [Compound 36], the EC50 in data set [1] was 340 nM. As for `Cc1cc(C(=O)NCc2ccc(OCCN(C)C)cc2)ccc1[N+](=O)[O-]` [Compound 62], the EC50 in data set [1] came out at 390 nM. Take `Cc1ccc(C(=O)NCc2ccc(OCCN(C)C)cc2)cc1` [Compound 48]: the EC50 in data set [1] came to 510 nM. In data set [2], the LD50 was determined as 83.2 mg/kg. For the compound `COc1ccc(S(N)(=O)=O)cc1C(=O)NCc1ccc(OCCN2CCCCC2)cc1` [Compound 38], the EC50 in data set [1] is 350 nM. The same measure, in the same setting: under `COc1ccc(S(N)(=O)=O)cc1C(=O)NCc1ccc(OCCN2CCCC2)cc1` [Compound 37] stands 180 nM. In the case of `NCCc1ccc(O)c(O)c1` [Dopamine, dopamine], the “Gastrointestinal transit (% ± S.E.), dopamine alone” value in data set [3] (dopamine alone 2 mg/kg i.p., no test compound (model control group)) is 25.0 ± 3.4% and 35.9 ± 2.1% and 32.9 ± 3.1% and 32.1 ± 2.0% and 31.7 ± 3.2%. `CN(C)S(=O)(=O)c1cc(C(=O)NCc2ccc(OCCN3CCCC3)cc2)ccc1Cl` [Compound 40]: the EC50 in data set [1] worked out at 600 nM. Regarding `COc1cc(OC)cc(C(=O)NCc2ccc(OCCN(C)C)cc2)c1` [Compound 14], the EC50 in data set [1] worked out at 690 nM. As to `COc1cccc(C(=O)NCc2ccc(OCCN(C)C)cc2)c1` [Compound 23], the EC50 in data set [1] was found to be 300 nM. The same compound came in with an LD50 in data set [2] of 74.1 mg/kg. In the case of `Cc1cccc(C(=O)NCc2ccc(OCCN(C)C)cc2)c1` [Compound 47], the EC50 in data set [1] turned out to be 3000 nM. In addition, the LD50 in data set [2] came to 68.5 mg/kg. Take `COc1ccc(S(N)(=O)=O)cc1C(=O)NCc1ccc(OCCN(C)C)cc1` [Compound 6, N-[4-[2-(Dimethylamino)ethoxy]benzyl]-2-methoxy-5-sulfamoylbenzamide]: the EC50 in data set [1] was 400 nM. Moreover, the LD50 in data set [2] was 39.2 mg/kg.

For the compound `CN(C)CCOc1ccc(CNC(=O)c2ccc(N(C)C)cc2)cc1` [Compound 55], the EC50 in data set [1] came to 1300 nM. Still for that read-out and setting: under `Cc1ccc(C(=O)NCc2ccc(OCCN3CCCC3)cc2)cc1` [Compound 56] stands 320 nM. With `COc1cc(N)c(Cl)cc1C(=O)NCc1ccc(OCCN2CCCCC2)cc1` [Compound 35], the EC50 in data set [1] came out at 490 nM. Besides, the LD50 in data set [2] is 61.7 mg/kg. Take `COc1cc(C(=O)NCc2ccc(OCCN(C)C)cc2)cc(OC)c1OC` [Trimethobenzamide HCl, N-[4-[2-(dimethylamino)ethoxy]benzyl]-3,4,5-trimethoxybenzamide]: the EC50 in data set [1] came to 1500 nM. In addition, in data set [3], the “improvement of gastrointestinal transit inhibited by dopamine (in words)” value was “did not so only to a much lesser extent”, the “Improvement (%)” value stood at 32.4% and the “Gastrointestinal transit (% ± S.E.)” value was determined as 38.2 ± 3.8%. In addition, in data set [4] (30 mg/kg p.o.), the antiemetic effect result is “significant antiemetic effect”. As for `COc1cc(N)c(Cl)cc1C(=O)NCc1ccc(OCCN(C)C)cc1` [Compound 5, 4-Amino-5-chloro-N-[4-[2-(dimethylamino)ethoxy]benzyl]-2-methoxybenzamide], in data set [1], the EC50 came out at 180 nM. For the same compound, the LD50 in data set [2] is 94 mg/kg. With `O=C(NCc1ccc(OCCN2CCCC2)cc1)c1ccc2c(c1)OCO2` [Compound 3, 3,4-Methylenedioxy-N-[4-[2-(1-pyrrolidinyl)ethoxy]benzyl]benzamide], the EC50 in data set [1] was 460 nM. Moreover, in data set [3], the “Improvement (%)” value came out at 56.9% and the “Gastrointestinal transit (% ± S.E.)” value was determined as 44.0 ± 4.7%. The LD50 in data set [2] is 62.6 mg/kg.

In the case of `COc1ccc(C(=O)NCc2ccc(OCCN(C)C)cc2)cc1OC.Cl` [Compound 2, N-[4-[2-(Dimethylamino)ethoxy]benzyl]-3,4-dimethoxybenzamide hydrochloride], the EC50 in data set [1] is 600 nM. In data set [1] (isolated guinea pig ileum, compared with metoclopramide.HCl), the “times stronger contractile effect than metoclopramide.HCl” value is listed as “about 10 times”. Moreover, the “times stronger contractile effect than trimethobenzamide.HCl” value in data set [1] (isolated guinea pig ileum, compared with trimethobenzamide.HCl) is “about 2.5 times”. In data set [3], the “Improvement (%)” value stood at 56.5% and the “Gastrointestinal transit (% ± S.E.)” value was 43.9 ± 2.8%. The antiemetic effect entry in data set [4] (30 mg/kg p.o.) was “slight antiemetic effect”. This compound also gave an LD50 in data set [2] of 191 mg/kg. Turning to `CCN(CC)CCNC(=O)c1cc(Cl)c(N)cc1OC` [Metoclopramide HCl, 4-Amino-5-chloro-N-[(2-diethylamino)ethyl]-2-methoxybenzamide], in data set [1], the EC50 worked out at 6300 nM. In data set [3], the “improvement of gastrointestinal transit inhibited by dopamine (in words)” value was “did not so only to a much lesser extent”, the “Improvement (%)” value was 27.1% and the “Gastrointestinal transit (% ± S.E.)” value worked out at 37.2 ± 3.2%. Besides, the antiemetic effect entry in data set [4] (1 mg/kg p.o.) is listed as “significant antiemetic effect”. As to `COc1ccc(C(=O)NCc2ccc(OCCN(C)C)cc2)cc1` [Compound 24], the EC50 in data set [1] came out at 610 nM. Take `CNS(=O)(=O)c1ccc(OC)c(C(=O)NCc2ccc(OCCN3CCCC3)cc2)c1` [Compound 43]: the EC50 in data set [1] was less than 100 nM.

For the compound `COc1cc(N)c(Cl)cc1C(=O)NCc1ccc(OCCN2CCCC2)cc1` [Compound 34, 4-amino-5-chloro-2-methoxy-N-[4-[2-(1-pyrrolidinyl)ethoxy]benzyl] benzamide], in data set [1], the EC50 came to 120 nM. Besides, in data set [3], the “Improvement (%)” value is 63.4% and the “Gastrointestinal transit (% ± S.E.)” value was determined as 46.6 ± 3.4%. Further, the LD50 in data set [2] is 44.7 mg/kg. On the same counts, the results for `CCOc1ccc(C(=O)NCc2ccc(OCCN(C)C)cc2)cc1OC` [Compound 31, N-[4-[2-(dimethylamino)ethoxy]benzyl]-4-ethoxy-3-methoxybenzamide] are 420 nM, 58.5%, 45.2 ± 3.0% and 105 mg/kg. As to `COc1ccc(C(=O)NCc2ccc(OCCN3CCCCC3)cc2)cc1OC` [Compound 19], the EC50 in data set [1] is 420 nM. Moreover, the LD50 in data set [2] was 70.8 mg/kg.
